According to ChEMBL document CHEMBL1201862, “PubChem BioAssay data set” (2004):
Active and inactive are the calls of the source.

Key:
[1] = biological target: Heat shock protein HSP 90-alpha (Homo sapiens, UniProt P07900); test: Luminescence-based dose response biochemical high throughput screening assay for inhibitors of the Heat Shock Protein 90 (HSP90). [Related pubchem assays: 1831 (Summary AID.), 1846 (Confirmation screen.), 1789 (Primary screen.)]
[2] = biological target: Sphingosine 1-phosphate receptor 2 (Homo sapiens, UniProt O95136); test: Dose Response Cell Based Assay for Agonists of the S1P2 Receptor. [Related pubchem assays: 729, 736, 843 ]; type: functional
Chain of Sphingosine 1-phosphate receptor 2 (O95136 whole entry): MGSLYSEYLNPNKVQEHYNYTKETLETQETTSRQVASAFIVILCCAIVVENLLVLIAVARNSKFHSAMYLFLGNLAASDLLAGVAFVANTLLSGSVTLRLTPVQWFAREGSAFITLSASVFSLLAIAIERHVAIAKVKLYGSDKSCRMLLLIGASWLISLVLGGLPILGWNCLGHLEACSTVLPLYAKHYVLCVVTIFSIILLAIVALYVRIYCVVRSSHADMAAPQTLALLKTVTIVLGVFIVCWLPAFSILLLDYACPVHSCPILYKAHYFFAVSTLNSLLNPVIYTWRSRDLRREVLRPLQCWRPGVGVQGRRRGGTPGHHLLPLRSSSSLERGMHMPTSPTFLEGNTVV

[3] = Jurkat T cell cytotoxicity, dose response, cytotoxicity control for P. falciparum gametocyte viability project, luminescence (AID 1117277); type: functional, cell-based;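 note: potency reflects loss of cellular ATP meaning fewer viable cells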
[4] = P. falciparum late gametocyte killing, dose response, luminescence (AID 1117278); type: functional, cell-based;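 note: gametocytes exposed to compound for 24 hours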
[5] = biological target: T1, Tyrosine-protein phosphatase non-receptor type 7 (Homo sapiens, UniProt P35236); test: inhibitors of human HePTP phosphatase, […], biochemical, absorbance, leukemia target (AID 521); type: functional
T1 sequence (P35236 whole entry): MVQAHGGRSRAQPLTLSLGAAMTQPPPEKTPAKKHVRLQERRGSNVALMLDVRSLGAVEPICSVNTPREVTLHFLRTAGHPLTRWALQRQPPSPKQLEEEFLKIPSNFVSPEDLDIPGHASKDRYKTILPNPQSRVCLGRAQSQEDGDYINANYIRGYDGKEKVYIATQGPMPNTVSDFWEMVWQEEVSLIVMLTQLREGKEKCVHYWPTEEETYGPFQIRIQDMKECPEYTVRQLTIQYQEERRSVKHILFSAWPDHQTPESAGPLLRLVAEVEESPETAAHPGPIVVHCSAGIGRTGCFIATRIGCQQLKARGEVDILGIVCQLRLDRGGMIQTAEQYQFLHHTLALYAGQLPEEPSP

[6] = biological target: G-protein coupled receptor 183 (Homo sapiens, UniProt P32249); test: SAR confirmation of small molecule antagonists of the EBI2 receptor via a luminescent beta-arrestin assa.; type: functional
Chain of G-protein coupled receptor 183 (P32249 whole entry): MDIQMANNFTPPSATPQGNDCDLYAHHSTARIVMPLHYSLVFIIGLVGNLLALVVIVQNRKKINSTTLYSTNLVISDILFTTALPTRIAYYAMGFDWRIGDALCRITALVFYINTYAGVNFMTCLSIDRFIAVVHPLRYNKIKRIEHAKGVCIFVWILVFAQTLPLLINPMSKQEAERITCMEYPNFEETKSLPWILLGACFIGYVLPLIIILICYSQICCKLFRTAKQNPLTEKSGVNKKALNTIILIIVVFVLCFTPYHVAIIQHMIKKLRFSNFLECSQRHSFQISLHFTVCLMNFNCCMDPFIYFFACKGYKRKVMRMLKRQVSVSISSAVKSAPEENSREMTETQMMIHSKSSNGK

[7] = biological target: Metabotropic glutamate receptor 7 (Homo sapiens, UniProt Q14831); test: mGlu7 positive allosteric modulators, dose response, cell-based, calcium mobilization, Galpha15 (AID 743384); type: functional
Chain of Metabotropic glutamate receptor 7 (Q14831 whole entry): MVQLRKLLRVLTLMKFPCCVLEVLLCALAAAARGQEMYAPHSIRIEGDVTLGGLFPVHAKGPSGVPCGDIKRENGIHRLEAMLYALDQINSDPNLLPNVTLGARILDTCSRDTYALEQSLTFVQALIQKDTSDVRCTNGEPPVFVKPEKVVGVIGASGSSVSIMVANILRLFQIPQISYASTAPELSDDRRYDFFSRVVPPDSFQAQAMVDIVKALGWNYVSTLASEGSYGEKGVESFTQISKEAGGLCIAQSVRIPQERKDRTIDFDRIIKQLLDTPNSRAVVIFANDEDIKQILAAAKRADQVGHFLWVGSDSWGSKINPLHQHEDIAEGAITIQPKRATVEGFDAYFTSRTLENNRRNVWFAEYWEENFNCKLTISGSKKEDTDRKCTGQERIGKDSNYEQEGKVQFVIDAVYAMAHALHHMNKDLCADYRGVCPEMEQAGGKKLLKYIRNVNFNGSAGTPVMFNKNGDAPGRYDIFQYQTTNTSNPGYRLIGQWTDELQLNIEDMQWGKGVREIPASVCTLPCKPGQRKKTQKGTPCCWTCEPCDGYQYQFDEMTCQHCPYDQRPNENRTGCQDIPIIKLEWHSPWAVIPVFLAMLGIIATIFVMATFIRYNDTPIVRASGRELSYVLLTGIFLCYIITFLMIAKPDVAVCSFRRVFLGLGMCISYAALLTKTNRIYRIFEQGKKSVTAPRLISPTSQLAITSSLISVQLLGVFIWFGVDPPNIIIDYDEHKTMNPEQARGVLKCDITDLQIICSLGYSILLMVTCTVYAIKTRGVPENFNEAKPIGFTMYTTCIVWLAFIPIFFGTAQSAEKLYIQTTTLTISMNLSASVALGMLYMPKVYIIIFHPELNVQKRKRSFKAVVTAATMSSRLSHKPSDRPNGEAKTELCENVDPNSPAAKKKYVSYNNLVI

## CC(=O)Oc1ccc(Nc2ccccc2)cc1
[1]
  IC50: 6.62 µM (active)

## O=C(CCC(=O)N1CCc2ccccc21)Nc1ccccc1
[2]
  EC50: > 50 µM (not active)

## CN(C)S(=O)(=O)N1CCC(Oc2ccc(C(=O)NCc3cnn(C)c3)cc2)CC1
[3]
  IC50: > 83.3 µM (inactive)
[4]
  IC50: > 109 µM (inactive)

## CC(C)(C#N)Nc1ccccc1
[5]
  IC50: > 100 µM (not active)

## CCN1CCN(C(=O)/C=C/c2ccc(Br)cc2)CC1
[6]
  IC50: 0.0158 µM (active)

## CCOc1ccc(-n2c(C)cc(C(=O)CSCc3cccc(C)c3)c2C)cc1
[7]
  EC50: 10 µM (active)
